PubChem BioAssay (NCI)
Several values for one entry are separate records, joined by “and”; a condition that tells them apart may be missing. Equal values may be shown once.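 Results reflect a 48-hour exposure of cells in 96-well plates to compound at five concentrations. Abbreviation: GI50, concentration required for 50% inhibition of growth. TGI: total growth inhibition.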

Columns and labels:
Test in all cases: growth of human tumour cells (NCI), 48 h
NCI-H23 lung = tested on: NCI-H23 lung
SK-MEL-2 melanoma = tested on: SK-MEL-2 melanoma
K-562 leukemia = tested on: K-562 leukemia
UO-31 renal = tested on: UO-31 renal
CCRF-CEM leukemia = tested on: CCRF-CEM leukemia
DU-145 prostate = tested on: DU-145 prostate
MCF7 breast = tested on: MCF7 breast
SF-295 CNS = tested on: SF-295 CNS
HOP-62 NSCLC = tested on: HOP-62 NSCLC
HOP-92 NSCLC = tested on: HOP-92 NSCLC

Row | Compound | TGI (NCI-H23 lung) | TGI (SK-MEL-2 melanoma) | TGI (K-562 leukemia) | TGI (UO-31 renal) | TGI (CCRF-CEM leukemia) | TGI (DU-145 prostate) | TGI (MCF7 breast) | TGI (SF-295 CNS) | TGI (HOP-62 NSCLC) | GI50 (NCI-H23 lung) | TGI (HOP-92 NSCLC) | GI50 (SF-295 CNS)
1 | CC[C@H](C)C1=C(OC(C)=O)[N@+]2([O-])Oc3ccc(-c4c(OC(C)=O)c(OC(C)=O)c(-c5ccc(OC(C)=O)cc5)c(OC(C)=O)c4OC(C)=O)cc3O[C@]2([C@@H](C)CC)C(=O)N1OC(C)=O | > 50 µM | 24.1 µM | > 50 µM | > 50 µM | 11.3 µM | > 50 µM | > 50 µM | 27.1 µM |  |  |  | 
2 | CN1C(=O)N(C)C2(CCN(CCCCCCF)CC2)C1=O | > 100 µM |  | > 100 µM | > 100 µM | > 100 µM | > 100 µM | > 100 µM | > 100 µM | > 100 µM |  |  | 
3 | CCCCCCCCCCSCC(CO)NC(=O)/C=C/c1c(C)[nH]c(=O)[nH]c1=O (stereo not drawn) | 14.3 µM and > 50 µM | 14.3 µM and 5.19 µM | > 50 µM | > 50 µM | 3.97 µM and 2.97 µM |  | > 19.3 µM and 17.4 µM | > 50 µM | > 31.1 µM and 31.2 µM | 1.76 µM and 5.54 µM | 3.72 µM and > 20.3 µM | 14.6 µM
4 | COc1ccc(C2C(Cl)C(=O)N2NC(=O)Cc2ccccc2)cc1OC (stereo not drawn) | > 100 µM | > 100 µM | > 100 µM | > 100 µM | > 100 µM |  |  | > 100 µM | > 100 µM |  |  | 
5 | NC(N)=NCC(N)C(=O)O (stereo not drawn) | > 100 µM | > 100 µM | > 100 µM | > 100 µM |  | > 100 µM | > 100 µM | > 100 µM | > 100 µM |  | > 100 µM | 
6 | CCN(CC)CCNc1ccc2ncn3c4cc(=O)ccc4c(O)c1c23 | 14.6 µM | 21.7 µM | 30 µM | 22 µM | 16.8 µM |  |  | 10.7 µM | 17.9 µM |  | 6.78 µM | 
7 | CN1B(c2ccccc2)N(C)C(=O)N(C)C1=O | > 100 µM | > 100 µM | > 100 µM | > 100 µM | > 100 µM | > 100 µM | > 100 µM | > 100 µM |  |  | > 100 µM | 
8 | Cc1cc(C)c(N=Nc2c(O)c(S(=O)(=O)O)cc3cc(S(=O)(=O)O)ccc23)cc1C | > 100 µM | > 100 µM | > 100 µM | > 100 µM | > 100 µM | > 100 µM |  | > 100 µM | > 100 µM |  | > 100 µM | 
9 | CC(/C=N/NC1=NCCCN1)=N\NC1=NCCCN1 | > 100 µM |  | > 100 µM | > 100 µM | > 100 µM |  | > 100 µM | > 100 µM | > 100 µM |  | > 100 µM | 
10 | O=[N+]([O-])c1cc(Cl)ccc1S(=O)(=O)N1CCCc2cc(Cl)ccc21 |  | > 100 µM | > 100 µM | > 100 µM | > 100 µM | > 100 µM | > 100 µM | > 100 µM | > 100 µM |  | > 100 µM | 
11 | CC(=O)O[C@H]1CC[C@H]2[C@@H]3CCC(C(C)=O)[C@H](C(=O)O)[C@H]3CC[C@]12C (stereo partly drawn) | > 100 µM | > 100 µM | > 100 µM | > 100 µM | > 100 µM |  | > 100 µM | > 100 µM | > 100 µM |  | > 100 µM | 
12 | O=C1C[C@H](c2ccc(O)c(O)c2)Oc2cc(O)cc(O)c21 | > 100 µM | > 100 µM | > 100 µM | > 100 µM | > 100 µM |  |  | > 100 µM | > 100 µM |  | > 100 µM | 
13 | CCCCNC(=S)Nc1nc(C(=O)NNC(=O)c2ccccc2)cs1 |  | 35.9 µM | > 100 µM | 28.5 µM | > 100 µM | 53.4 µM |  | 33.9 µM | 42.9 µM |  | > 100 µM | 
14 | COc1ccccc1N=C1SCCN1C(=S)Nc1ccc(S(=O)(=O)/N=C/N(C)C)cc1 | 95.9 µM |  | > 100 µM | > 100 µM | > 100 µM | > 100 µM | 83.7 µM | > 100 µM | > 100 µM |  | > 100 µM | 
15 | O=C1N[C@@H](COc2ccc(C=Nc3ccc(CCc4ccc(N=Cc5ccc(OC[C@@H]6COC(=O)N6)cc5)cc4)cc3)cc2)CO1 |  | > 100 µM | > 100 µM | > 100 µM |  | > 100 µM |  | > 100 µM | > 100 µM |  |  | 
16 | O=C(O)CC(O)(C(=O)O)C(O)C(=O)O (stereo not drawn) | > 1000 µM | > 1000 µM | > 1000 µM |  | > 1000 µM | > 1000 µM | > 1000 µM | > 1000 µM | > 1000 µM |  |  | 
17 | CC(=O)n1ccc2c(Cl)ncnc21 | > 100 µM | > 100 µM | > 100 µM | > 100 µM | > 100 µM |  |  | > 100 µM | > 100 µM |  | > 100 µM | 
18 | O=C(Oc1cccc(Cl)c1)c1cc2cc(CCl)ccc2oc1=O | > 100 µM | 28.9 µM | > 100 µM | > 100 µM |  | 62.9 µM | 99.6 µM | > 100 µM | > 100 µM |  | 43.1 µM | 
19 | COC(=O)C(Cc1nc2ccccc2[nH]c1=O)C(=O)C(=O)Nc1cc(C(F)(F)F)ccc1Cl (stereo not drawn) | 30.4 µM | 34.9 µM | > 100 µM | 28.9 µM | 48.2 µM |  | 27.4 µM | 71.2 µM | 35.1 µM |  | 32.5 µM | 
20 | COC(=O)C1C2CC3C(OC(=O)C31)C2OC(=O)[C@](OC)(c1ccccc1)C(F)(F)F (stereo partly drawn) | > 100 µM | > 100 µM | > 100 µM | > 100 µM | > 100 µM |  |  |  | > 100 µM |  | > 100 µM | 
21 | OC(c1ccccc1)(c1cccnc1)C(O)(c1ccccc1)c1cccnc1 (stereo not drawn) | > 100 µM | > 100 µM |  | > 100 µM | > 100 µM | > 100 µM | > 100 µM | > 100 µM |  |  | > 100 µM | 
22 | O=C1NC2(C=Cc3c(ccc4ccccc34)O2)Oc2ccccc21 (stereo not drawn) | 92.3 µM | 56.5 µM | > 100 µM | 9.41 µM | 32.1 µM |  |  | 67.5 µM | > 100 µM |  |  | 
23 | CCN(CC)CCC(=O)c1ccc(Oc2ccc(F)cc2)cc1 | 45.9 µM | > 100 µM | > 100 µM |  | 50.1 µM | 53.1 µM | 38.7 µM | > 100 µM | 56.6 µM |  | 34 µM | 
24 | CC(C)(C)OC(=O)N1N=NC2C3OC(CC3=O)C21 (stereo not drawn) | > 100 µM | > 100 µM | > 100 µM | > 100 µM | > 100 µM |  |  |  | > 100 µM |  | > 100 µM | 
